Columns and labels:
[1] = DLS size of dendrimersomes assembled from glycerol-JDs in water at different concentrations; assay type: physicochemical; details: for Dh (nm): size distribution by intensity
Method: Assembly of all eight glycerol-JDs was performed by injection of their ethanol solution (50 μL) into 1 mL of Milli-Q water. The size distribution and structure of resulting DSs were analyzed by DLS (FIG. 84) and cryo-TEM. […] In a certain concentration range the size of DSs increased with the concentration of JDs injected in water or buffer. […] The dimensions of the assemblies were identical when the concentrations of the JDs in water were identical. Sizes of assemblies from mixtures of 1R and 1S in different ratios (1:3, 1:1 and 3:1), were also identical (FIG. 84). […] With the exception of the rotation of polarized light, the physical properties of enantiomers and their racemic mixtures must be identical.
Dynamic light scattering (DLS). Hydrodynamic diameters (Dh) of the self-assemblies of dendrimer molecules and their size distributions were measured on a Malvern Instruments particle sizer (Zetasizer® Nano S, Malvern Instruments, UK) equipped with 4 mW He—Ne laser (633 nm) and avalanche photodiode positioned at […] to the beam and temperature controlled cuvette holder. Experiments were performed at 25° C. in triplicate. The distribution of radius was intensity.

[2] = pKa measurements of individual IAJD molecules by titration; assay type: physicochemical; details: individual IAJD molecule; for Avg pKa: average of pKa 1-3; for pKa 1: measurement 1; for pKa 2: measurement 2; for pKa: ethanol saturated with NaCl, titrated with 0.1 M aqueous HCl, Table 15
Method: pKa measurements of individual IAJD Molecules was performed as follows. IAJD Molecules were first dissolved in ethanol (Sat. with NaCl) at a concentration of 1.5 mg/mL and the solution volume was 3 mL.
Then 0.1 M HCl solution was added to the above ethanol solution with an increment of 7.5 μL. The resulting pH after each addition of HCl solution was measured by an Thermo Scientific Orion Star A121 meter with Thermo Scientific Orion 8220BNWP pH probe. pKa was determined using the half equivalence point titration.

CCCCCCCCCCCCOc1cc(OCCCCCCCCCCCC)cc(C(=O)OCC(COC(=O)c2cc(OCCCCCCCCCCCC)cc(OCCCCCCCCCCCC)c2)OC(=O)C(C)(COC(=O)c2cc(OCCOCCOCCOC)c(OCCOCCOCCOC)c(OCCOCCOCCOC)c2)COC(=O)c2cc(OCCOCCOCCOC)c(OCCOCCOCCOC)c(OCCOCCOCCOC)c2)c1 [Compound 3, (3,5)-12G1-GC-(achiral)-BMPA-(3,4,5)-3EO-G2]
PDI ([1]; JD 0.025 mg·mL−1 in water): 0.272 | Dh (nm) ([1]; JD 0.025 mg·mL−1 in water): 72 nm | PDI ([1]; JD 0.05 mg·mL−1 in water): 0.241 | Dh (nm) ([1]; JD 0.05 mg·mL−1 in water): 97 nm | PDI ([1]; JD 0.1 mg·mL−1 in water): 0.183 | Dh (nm) ([1]; JD 0.1 mg·mL−1 in water): 123 nm | PDI ([1]; JD 0.25 mg·mL−1 in water): 0.153 | Dh (nm) ([1]; JD 0.25 mg·mL−1 in water): 144 nm | PDI ([1]; JD 0.5 mg·mL−1 in water): 0.152 | Dh (nm) ([1]; JD 0.5 mg·mL−1 in water): 162 nm | PDI ([1]; JD 0.75 mg·mL−1 in water): 0.236 | Dh (nm) ([1]; JD 0.75 mg·mL−1 in water): 224 nm | PDI ([1]; JD 1.0 mg·mL−1 in water): 0.233 | Dh (nm) ([1]; JD 1.0 mg·mL−1 in water): 266 nm

CCCCCCCCCCCCOc1cc(OCCCCCCCCCCCC)cc(C(=O)OCC(C)(COC(=O)c2cc(OCCCCCCCCCCCC)cc(OCCCCCCCCCCCC)c2)C(=O)OC(COC(=O)c2cc(OCCOCCOCCOC)c(OCCOCCOCCOC)c(OCCOCCOCCOC)c2)COC(=O)c2cc(OCCOCCOCCOC)c(OCCOCCOCCOC)c(OCCOCCOCCOC)c2)c1 [Compound 4, (3,5)-12G2-BMPA-GC-(achiral)-(3,4,5)-3EO-G1]
PDI ([1]; JD 0.025 mg·mL−1 in water): 0.391 | Dh (nm) ([1]; JD 0.025 mg·mL−1 in water): 100 nm | PDI ([1]; JD 0.05 mg·mL−1 in water): 0.266 | Dh (nm) ([1]; JD 0.05 mg·mL−1 in water): 102 nm | PDI ([1]; JD 0.1 mg·mL−1 in water): 0.136 | Dh (nm) ([1]; JD 0.1 mg·mL−1 in water): 119 nm | PDI ([1]; JD 0.25 mg·mL−1 in water): 0.180 | Dh (nm) ([1]; JD 0.25 mg·mL−1 in water): 132 nm | PDI ([1]; JD 0.5 mg·mL−1 in water): 0.183 | Dh (nm) ([1]; JD 0.5 mg·mL−1 in water): 166 nm | PDI ([1]; JD 0.75 mg·mL−1 in water): 0.233 | Dh (nm) ([1]; JD 0.75 mg·mL−1 in water): 210 nm | PDI ([1]; JD 1.0 mg·mL−1 in water): 0.291 | Dh (nm) ([1]; JD 1.0 mg·mL−1 in water): 284 nm

CCCCCCCCCCCCOc1cc(CNC(=O)c2cc(OCCOCCOCCOC)c(OCCOCCOCCOC(=O)CCCN(C)C)c(OCCOCCOCCOC)c2)cc(OCCCCCCCCCCCC)c1 [IAJD 2]
Avg pKa [2]: 6.20 | pKa 1 ([2]; titration): 6.20

CCCCCCCCCCCCOc1cc(CNC(=O)c2cc(OCCOCCOCCOC(=O)CCCN(C)C)c(OCCOCCOCCOC)c(OCCOCCOCCOC(=O)CCCN(C)C)c2)cc(OCCCCCCCCCCCC)c1 [IAJD 4]
Avg pKa [2]: 6.43 | pKa 1 ([2]; titration): 6.43

CCCCCCCCCCCCOc1cc(CNC(=O)c2cc(OCCOCCOCCOC(=O)CCCN(C)C)c(OCCOCCOCCOCc3ccccc3)c(OCCOCCOCCOC(=O)CCCN(C)C)c2)cc(OCCCCCCCCCCCC)c1 [IAJD 9]
Avg pKa [2]: 6.56 | pKa 1 ([2]; titration): 6.52 | pKa 2 ([2]; titration): 6.52 | pKa 3 ([2]; titration, measurement 3): 6.64

CCCCCCCCCCCCOc1cc(OCCCCCCCCCCCC)cc(C(=O)OCC(COC(=O)c2cc(OCCCCCCCCCCCC)cc(OCCCCCCCCCCCC)c2)(COC(=O)c2cc(OCCOCCOCCOC)c(OCCOCCOCCOC)c(OCCOCCOCCOC(=O)CCCN(C)C)c2)NC(=O)c2cc(OCCOCCOCCOC)c(OCCOCCOCCOC)c(OCCOCCOCCOC)c2)c1 [IAJD 38]
Avg pKa [2]: 6.38 | pKa 1 ([2]; titration): 6.43 | pKa 2 ([2]; titration): 6.32

CCCCCCCCCCCCOc1cc(OCCCCCCCCCCCC)cc(C(=O)OCC(COC(=O)c2cc(OCCCCCCCCCCCC)cc(OCCCCCCCCCCCC)c2)(COC(=O)c2cc(OCCOCCOCCOC(=O)CCCN(C)C)c(OCCOCCOCCOC)c(OCCOCCOCCOC(=O)CCCN(C)C)c2)NC(=O)c2cc(OCCOCCOCCOC)c(OCCOCCOCCOC)c(OCCOCCOCCOC)c2)c1 [IAJD 41]
Avg pKa [2]: 6.36 | pKa 1 ([2]; titration): 6.38 | pKa 2 ([2]; titration): 6.34

CCCCCCCCCCCCOc1cc(OCCCCCCCCCCCC)cc(C(=O)OCC(COC(=O)c2cc(OCCCCCCCCCCCC)cc(OCCCCCCCCCCCC)c2)(COC(=O)c2cc(OCCOCCOCCOC(=O)CCCN(C)C)c(OCCOCCOCCOC(=O)CCCN(C)C)c(OCCOCCOCCOC(=O)CCCN(C)C)c2)NC(=O)c2cc(OCCOCCOCCOC)c(OCCOCCOCCOC)c(OCCOCCOCCOC)c2)c1 [IAJD 42]
Avg pKa [2]: 6.06 | pKa 1 ([2]; titration): 6.06

CCCCCCCCCCCCOc1cc(COC(=O)CCCN(C)C)cc(OCCCCCCCCCCCC)c1 [IAJD 64, 3,5-Bis(dodecyloxy)benzyl 4-(dimethylamino)butanoate]
pKa ([2]; titration): 7.06

CCCCCCCCCCCCOc1cc(COC(=O)CCCN2CCN(C)CC2)cc(OCCCCCCCCCCCC)c1 [IAJD 66, 3,5-Bis(dodecyloxy)benzyl 4-(4-methylpiperazin-1-yl)butanoate]
pKa ([2]; titration): 6.37

CCCCCCCCCCCCOc1cc(CNC(=O)CCCN2CCN(C)CC2)cc(OCCCCCCCCCCCC)c1 [IAJD 70, N-(3,5-bis(dodecyloxy)benzyl)-4-(4-methylpiperazin-1-yl)butanamide]
pKa ([2]; titration): 6.44

— US20240252677A1, “ONE-COMPONENT DELIVERY SYSTEM FOR NUCLEIC ACIDS” (The Trustees of the University of Pennsylvania, priority 2021, published 2024)
